# Laboratory results taken from ChEMBL document CHEMBL1146300, “High affinity Grb2-SH3 domain ligand incorporating Cbeta-substituted prolines in a Sos-derived decapeptide” (Bioorg Med Chem, 2007).
# Active and inactive are the calls of the source. The calls are words filed in the database; no cut-off is given here. Numbered stars: 1 amine (or outer) side, 2 acyl side, 3 side chain; on linkers, the order of the positions; unused ones are H or OH. Square brackets hold non-standard residues; d marks the D form. Peptide text beside a SMILES is read from it. X4 = O=C([C@@H]1C(CS(=O)(=O)c2ccccc2)CCN1[*:1])[*:2]; X3 = C[S+]([O-])CC1CCN([*:1])[C@@H]1C(=O)[*:2]; X2 = O=C(O)CC1CCN([*:1])[C@@H]1C(=O)[*:2]; X6 = CC(C)C1CCN([*:1])[C@@H]1C(=O)[*:2]; X5 = O=C([C@@H]1C(CO)CCN1[*:1])[*:2]; X1 = CC1CCN([*:1])[C@@H]1C(=O)[*:2]
# Molecular target: Growth factor receptor-bound protein 2 (Homo sapiens, UniProt P62993)
# Assay: Binding affinity to recombinant Grb2-SH3 domain by fluorescence spectroscopy
Compound,Activity,Kd [µM]
H-VPPPPPPRRR-OH,inactive,–
CC(C)[C@H](N)C(=O)N1CCC[C@H]1C(=O)N1CCC[C@H]1C(=O)N1CCC[C@H]1C(=O)N1CCC(CC(=O)O)[C@H]1C(=O)N1CCC[C@H]1C(=O)N1CCC[C@H]1C(=O)N[C@@H](CCCNC(=N)N)C(=O)N[C@@H](CCCNC(=N)N)C(=O)N[C@@H](CCCNC(=N)N)C(=O)O (stereo partly drawn) (H-VPPP[X2]PPRRR-OH),inactive,–
CC(=O)N[C@H](C(=O)N1CCC[C@H]1C(=O)N1CCC[C@H]1C(=O)N1CCC[C@H]1C(=O)N1CCC(C)[C@H]1C(=O)N1CCC[C@H]1C(=O)N1CCC[C@H]1C(=O)N[C@@H](CCCNC(=N)N)C(=O)N[C@@H](CCCNC(=N)N)C(=O)N[C@@H](CCCNC(=N)N)C(=O)N[C@H](C(=O)N1CCC[C@H]1C(=O)N1CCC[C@H]1C(=O)N1CCC[C@H]1C(=O)N1CCC(C)[C@H]1C(=O)N1CCC[C@H]1C(=O)N1CCC[C@H]1C(=O)N[C@@H](CCCNC(=N)N)C(=O)N[C@@H](CCCNC(=N)N)C(=O)N[C@@H](CCCNC(=N)N)C(=O)N[C@@H](CCCCN)C(N)=O)C(C)C)C(C)C (stereo partly drawn) (Ac-VPPP[X1]PPRRRVPPP[X1]PPRRRK-NH2),–,< 0.52
CC(C)C1CCN(C(=O)[C@@H]2CCCN2C(=O)[C@@H]2CCCN2C(=O)[C@@H]2CCCN2C(=O)[C@@H](N)C(C)C)[C@@H]1C(=O)N1CCC[C@H]1C(=O)N1CCC[C@H]1C(=O)N[C@@H](CCCNC(=N)N)C(=O)N[C@@H](CCCNC(=N)N)C(=O)N[C@@H](CCCNC(=N)N)C(=O)O (stereo partly drawn) (H-VPPP[X6]PPRRR-OH),inactive,–
CC(C)[C@H](N)C(=O)N1CCC[C@H]1C(=O)N1CCC[C@H]1C(=O)N1CCC[C@H]1C(=O)N1CCC(C)[C@H]1C(=O)N1CCC[C@H]1C(=O)N1CCC[C@H]1C(=O)N[C@@H](CCCN=C(N)N)C(=O)N[C@@H](CCCN=C(N)N)C(=O)N[C@@H](CCCN=C(N)N)C(=O)O (stereo partly drawn) (H-VPPP[X1]PPRRR-OH),–,11.6
CC(C)[C@H](N)C(=O)N1CCC[C@H]1C(=O)N1CCC[C@H]1C(=O)N1CCC[C@H]1C(=O)N1CCC(CO)[C@H]1C(=O)N1CCC[C@H]1C(=O)N1CCC[C@H]1C(=O)N[C@@H](CCCNC(=N)N)C(=O)N[C@@H](CCCNC(=N)N)C(=O)N[C@@H](CCCNC(=N)N)C(=O)O (stereo partly drawn) (H-VPPP[X5]PPRRR-OH),inactive,–
CC(C)[C@H](N)C(=O)N1CCC[C@H]1C(=O)N1CCC[C@H]1C(=O)N1CCC[C@H]1C(=O)N1CCC(C[S+](C)[O-])[C@H]1C(=O)N1CCC[C@H]1C(=O)N1CCC[C@H]1C(=O)N[C@@H](CCCNC(=N)N)C(=O)N[C@@H](CCCNC(=N)N)C(=O)N[C@@H](CCCNC(=N)N)C(=O)O (stereo partly drawn) (H-VPPP[X3]PPRRR-OH),inactive,–
CC(C)[C@H](N)C(=O)N1CCC[C@H]1C(=O)N1CCC[C@H]1C(=O)N1CCC[C@H]1C(=O)N1CCC(CS(=O)(=O)c2ccccc2)[C@H]1C(=O)N1CCC[C@H]1C(=O)N1CCC[C@H]1C(=O)N[C@@H](CCCNC(=N)N)C(=O)N[C@@H](CCCNC(=N)N)C(=O)N[C@@H](CCCNC(=N)N)C(=O)O (stereo partly drawn) (H-VPPP[X4]PPRRR-OH),inactive,–
